Experimental data: ChEMBL document CHEMBL2021855, “Hepatitis C RNA-dependent RNA polymerase inhibitors: a review of structure-activity and resistance relationships; different scaffolds and mutations” (Bioorg Med Chem, 2012)

Assays:
Hepatitis C virus [1] = experiment: Antiviral activity against Hepatitis C virus assessed as inhibition of viral replication by replicon assay; assay type: functional, organism-based, Hepacivirus hominis
[2] = Inhibition of Hepatitis C virus NS5B RNA-dependent RNA polymerase; design: species or system Hepacivirus hominis
Hepatitis C virus [3] = experiment: Inhibition of Hepatitis C virus genotype 1b NS5B RNA-dependent RNA polymerase P495L mutant; design: species or system Hepatitis C virus subtype 1b
Hepatitis C virus [4] = experiment: Inhibition of Hepatitis C virus genotype 1b NS5B RNA-dependent RNA polymerase; design: species or system Hepatitis C virus subtype 1b
Hepatitis C virus [5] = experiment: Inhibition of Hepatitis C virus genotype 1b NS5B RNA-dependent RNA polymerase M423 mutant; design: species or system Hepatitis C virus subtype 1b
[6] = Competitive inhibition of Hepatitis C virus NS5B RNA-dependent RNA polymerase; design: species or system Hepacivirus hominis
Hepatitis C virus [7] = experiment: Antiviral activity against Hepatitis C virus genotype 1a assessed as inhibition of viral replication by replicon assay; assay type: functional, organism-based, Hepacivirus hominis; details: subtype 1a
Hepatitis C virus [8] = experiment: Antiviral activity against Hepatitis C virus genotype 1b assessed as inhibition of viral replication by replicon assay; assay type: functional, organism-based, Hepacivirus hominis
[9] = Inhibition of Hepatitis C virus genotype 1 NS5B RNA-dependent RNA polymerase
Hepatitis C virus [10] = experiment: Inhibition of Hepatitis C virus con1 NS5B RNA-dependent RNA polymerase; design: species or system Hepacivirus hominis
Hepatitis C virus [11] = experiment: Inhibition of Hepatitis C virus con1 NS5B RNA-dependent RNA polymerase C316Y mutant; design: species or system Hepacivirus hominis
Hepatitis C virus [12] = experiment: Antiviral activity against Hepatitis C virus genotype 1a infected in human HuH7 cells assessed as inhibition of viral replication by replicon assay; assay type: functional, organism-based, Hepacivirus hominis; details: subtype 1a, Huh-7
Hepatitis C virus [13] = experiment: Antiviral activity against Hepatitis C virus genotype 1b infected in human HuH7 cells assessed as inhibition of viral replication by replicon assay; assay type: functional, organism-based, Hepacivirus hominis; details: Huh-7
[14] = Cytotoxicity against human HuH7 cells; assay type: cell-based, Huh-7
[15] = Half life in human liver microsomes
[16] = Half life in monkey liver microsomes; details: rhesus monkey

Q: For `O=C(O)/C=C/c1ccc(NC(=O)C2(NC(=O)c3ccc4c(c3)nc(-c3ccoc3)n4C3CCCCC3)CCCC2)cc1`, which EC50 (Hepatitis C virus [1]) is on record?
A: 0.072 µM

Q: What about the IC50 [2] of the same compound?
A: 0.095 µM

Q: Which IC50 [2] does the source give for `CO[C@@H]1[C@H](O)[C@@H](CO)O[C@H]1n1ccc(N)nc1=O` here?
A: 1.2 µM

Q: With `Nc1nc(O)c2ccn([C@@H]3O[C@H](CO)C[C@H]3O)c2n1` as the compound, how does the IC50 [2] read?
A: 0.08 µM

Q: Which IC50 [2] does the source give for `Nc1ncnc2c1ccn2[C@@H]1O[C@H](CO)C[C@H]1O` here?
A: 0.08 µM

Q: With `C[C@@]1(O)[C@H](O)[C@@H](CO)O[C@H]1n1cc(F)c2c(N)ncnc21` as the compound, how does the EC50 (Hepatitis C virus [1]) read?
A: 0.07 µM

Q: Which IC50 (Hepatitis C virus [3]) does the source give for `O=C(O)c1ccc2c(c1)nc(-c1ccc(OCc3cc(N4CCCC4=O)ccc3-c3ccc(Cl)cc3)cc1F)n2C1CCCCC1` here?
A: 1.5 µM

Q: Which IC50 [2] does the source give for `CO[C@@H]1[C@H](O)[C@@H](CO)O[C@H]1n1cnc2c(O)nc(N)nc21` here?
A: 3.8 µM

Q: For `C[C@H]1CC[C@H](C(=O)N(c2cc(-c3ccccc3)sc2C(=O)O)[C@H]2CC[C@H](O)CC2)CC1`, which IC50 (Hepatitis C virus [4]) is on record?
A: 0.017 µM

Q: And the IC50 (Hepatitis C virus [5])?
A: 0.45 µM

Q: With `Nc1ccn([C@@H]2O[C@H](CO)C[C@H]2O)c(=O)n1` as the compound, how does the IC50 [2] read?
A: 0.08 µM

Q: For `CO[C@@H]1[C@H](O)[C@@H](CO)O[C@H]1n1ccc2c(O)nc(N)nc21`, which IC50 [2] is on record?
A: 0.35 µM

Q: Which IC50 [2] does the source give for `O=C(O)/C=C/c1ccc(NC(=O)CNC(=O)c2ccc3c(c2)nc(-c2ccoc2)n3C2CCCCC2)cc1` here?
A: 0.28 µM

Q: For `Nc1nc2c(ncn2[C@@H]2O[C@H](CO)C[C@H]2O)c(=O)[nH]1`, which IC50 [2] is on record?
A: 0.08 µM

Q: Which EC50 [2] does the source give for `C[C@@]1(O)[C@H](O)[C@@H](CO)O[C@H]1n1cnc2c(=O)[nH]c(N)nc21` [2'-B-METHYL-GUANOSINE] here?
A: 3.5 µM

Q: With `[N-]=[N+]=N[C@]1(CO)O[C@@H](n2ccc(N)nc2=O)[C@H](O)[C@@H]1O` [4'-AZIDOCYTIDINE] as the compound, how does the Ki [6] read?
A: 0.04 µM

Q: For `COC[C@H]1C[C@@](Cn2cccn2)(C(=O)O)N(C(=O)c2ccc(C(C)(C)C)c(OC)c2)[C@H]1c1nccs1` [GSK-625433], which EC50 (Hepatitis C virus [7]) is on record?
A: 0.29 µM

Q: What about the EC50 (Hepatitis C virus [8]) of the same compound?
A: 0.002 µM

Q: Which results are given for `CNC(=O)c1c(-c2ccc(F)cc2)oc2cc(N(CCO)S(C)(=O)=O)c(C3CC3)cc12` [NESBUVIR]?
A: IC50 [9]: 0.01 µM; EC50 (Hepatitis C virus [7]): 0.005 µM; EC50 (Hepatitis C virus [8]): 0.009 µM; IC50 (Hepatitis C virus [10]): 0.0008 µM; IC50 (Hepatitis C virus [11]): 2.16 µM

Q: For `CS(=O)(=O)Nc1ccc2c(c1)S(=O)(=O)N=C(C1=C(O)[C@@H]3[C@H]4CC[C@H](C4)[C@@H]3N(Cc3ccc(F)cc3)C1=O)N2` [SETROBUVIR], which EC50 (Hepatitis C virus [12]) is on record?
A: 0.052 µM

Q: And the EC50 (Hepatitis C virus [13])?
A: 0.003 µM

Q: What about the CC50 [14] of the same compound?
A: 100 µM

Q: And the half-life [15]?
A: > 1 h

Q: And the half-life [16]?
A: > 1 h
